The values below come from patent publication US7585861B2, “HIV inhibiting 1,2,4-triazines” (Janssen Pharmaceutica, N.V., priority 2003, dated 2009).

For series [1], the system named is HIV. Nature of the series: Test A: inhibition of the HIV-induced cytopathic effect in MT-4 cells (MTT). The format is cell-based. As to the method:
(§1) A rapid, sensitive and automated assay procedure was used for the in vitro evaluation of anti-HIV agents. An […] T4-cell line, MT-4, which was previously shown (Koyanagi et al., Int. J. Cancer, 36, 445-451, 1985) to be highly susceptible to and permissive for HIV infection, served as the target cell line. Inhibition of the HIV-induced cytopathic effect was used as the end point. The viability of both HIV- and mock-infected cells was assessed spectrophotometrically via the in situ reduction of 3-(4,5-dimethylthiazol-2-yl)-2,5-diphenyltetrazolium bromide (MTT). […] The percent protection achieved by the compound in HTV-infected cells was calculated by the following formula:
(§2) [formula] whereby (ODT)HIV is the optical density measured with a given concentration of the test compound in HIV-infected cells; (ODC)HIV is the optical density measured for the control unteated HIV-infected cells; (ODC)MOCK is the optical density measured for the control untreated mock-infected cells; all optical density values were determined at 540 nm. […] The ratio of CC50 to IC50 was defined as the selectivity index (SI).
On the technique in general: Protection from cytopathic effect is a common read-out in antiviral testing.

A short description of series [2]: Test A: cytotoxicity in mock-infected MT-4 cells (MTT). The class given is cell-based. As to conditions: human. The method, then:
as §1, §2

The subject of series [3] is HIV. Nature of the series: Test B: HIV infection measured fluorometrically in MT-4 cells engineered with GFP (HIV-specific promotor). The settings on record: Human immunodeficiency virus 1, MT4. The format is cell-based. The method, then:
(§3) An […] T4-cell line, MT-4, which was previously shown (Koyanagi et al., Int. J. Cancer, 36, 445-451, 1985) to be highly susceptible to and permissive for HIV infection, served as the target cell line. In these cells, engineered with GFP (and an HIV-specific promotor), ongoing HIV-infection was measured fluorometrically. Cytotoxicity is measured in the same cells, but engineered with GFP under a constitutional promoter. The infection (or inhibition thereof) of HIV infected cells and the flourescence of mock-infected cells is assessed by the fluorescent GFP signal generated by the two above mentioned cell lines.

Series [4] is described as follows: Test B: cytotoxicity in mock-infected MT-4 cells engineered with GFP under a constitutional promoter. The format is cell-based. The settings on record: human. The method, then:
as §3

The test system of the next series is mock-infected MT-4 cells. Nature of the series: Test B: cytotoxicity in mock-infected MT-4 cells engineered with GFP under a constitutional promoter. The format is cell-based. As to the method:
as §3

Where [5] appears, read: Human immunodeficiency virus 1, MT4, read-out: pIC50 (converted).

Broadly, the CC50 is the concentration at which the toxic effect on the cells reaches its halfway point. As to `COc1cc(OC)c(Nc2cnnc(Nc3ccc(C#N)cc3)n2)c(OC)c1` [Compound 36], the IC50 in the series with HIV [1] (setting [5]) was 5.01e-10 M. Also, the CC50 in series [2] (mock-infected MT-4 cells) was more than 100000 nM.

In the series on HIV [3], `Cc1cc(/C=C/C(N)=O)cc(C)c1Oc1nc(Nc2ccc(C#N)cc2)nnc1C` [Compound 48] gave an IC50 of 0.631 nM. In series [4], it took 25100 nM to reach half-maximal cytotoxicity (CC50).

In general, melting point refers to the temperature of the solid-liquid transition. `N#CCCc1cc(Cl)c(Nc2nnc(Cl)c(Nc3ccc(C#N)cc3)n2)c(Br)c1` [Compound 75] registered a melting point of 252 to 254 °C. In addition, the IC50 with HIV [3] is 3.16 nM. The CC50 in series [4] was more than 25100 nM.

`Cc1cc(CCC#N)cc(C)c1Nc1nnc(Cl)c(Nc2ccc(C#N)cc2)n1` showed a melting point of 266 to 267 °C.

Consider `Cc1cc(/C=C/C(N)=O)cc(C)c1Nc1nc(Nc2ccc(C#N)cc2)nnc1C` [Compound 58], for which the IC50 in the series with HIV [3] is 251 nM. For the same compound, it took 10000 nM to reach half-maximal cytotoxicity in series [4] (CC50).

Take `Cc1cc(C#N)cc(C)c1Oc1nc(Nc2ccc(C#N)cc2)nnc1Cl` [Compound 3]: in the series on HIV [1] (setting [5]), the IC50 was 5.01e-09 M. The CC50 in series [2] (mock-infected MT-4 cells) is more than 100000 nM.

Consider `Cc1cc(C)c(Nc2nc(Nc3ccc(C#N)cc3)nnc2Cl)c(C)c1` [Compound 44], for which, in the series on HIV [1] (Human immunodeficiency virus 1, MT4, read-out: pIC50 (M) (converted)), the IC50 is 2.51e-09 M. Also, the CC50 in series [2] was more than 25100 nM.

`N#CCCc1cc(Cl)c(Nc2nnc(Cl)c(Nc3ccc(C#N)cc3)n2)c(Cl)c1` [Compound 74] returned a melting point of 256 to 257 °C. Besides, in the series with HIV [3], the IC50 is 5.01 nM. In addition, the CC50 in series [4] is more than 25100 nM.

For `Cc1cc(C#N)cc(C)c1Nc1cnnc(Nc2ccc(C#N)cc2)n1` [Compound 1], the IC50 with HIV [1] (setting [5]) is 2e-09 M. In series [2] (mock-infected MT-4 cells), this compound yielded a CC50 of more than 100000 nM.

With `N#CCCc1cc(Br)c(Nc2nnc(Cl)c(Nc3ccc(C#N)cc3)n2)c(Br)c1` [Compound 73], in the series with mock-infected MT-4 cells, the PCC50 is reported as less than 4.6.

Turning to `N#C/C=C/c1cc(F)c(Nc2nnc(Cl)c(Nc3ccc(C#N)cc3)n2)c(F)c1` [Compound 62], the melting point was 276 to 277 °C. Moreover, the IC50 in the series on HIV [3] is 3.16 nM. For the same compound, it took 25100 nM to reach half-maximal cytotoxicity in series [4] (CC50).

Consider `C/C(=C\C#N)c1cc(Cl)c(Nc2nc(Nc3ccc(C#N)cc3)nnc2C)c(Cl)c1` [Compound 61], for which the PCC50 with mock-infected MT-4 cells is recorded as 5.4.
